Test results reported in article PMC7450938, “Prenatal to early postnatal neurotrophic treatment prevents Alzheimer-like behavior and pathology in mice” (Alzheimer's Research & Therapy, 2020).

How the values were obtained:
3xTg-AD mice = assay: Morris water maze; assay type: in vivo, mouse; conditions: ~4 months
Experimental: Pregnant 3xTg-AD and wild-type (WT) mice were treated with compound P021 in mouse chow, or as control with vehicle feed from gestational day 8 (E8) till their offspring/pups reached PND21, at which point the offspring were separated from their mother and put on normal mouse chow (Fig. 1). There were four study groups of mice, as follows: offspring of WT treated with vehicle diet (WT-Vh, n = 10), offspring of WT treated with […] diet (WT-[…], n = 17), offspring of 3xTg-AD treated with vehicle diet (3xTg-Vh, n = 12), and offspring of 3xTg-AD treated with […] diet (3xTg-[…], n = 18). Elevated plus maze, novel object recognition test, and Morris water maze were carried out consecutively from postnatal day 90 with all of mice. About 50% (4 animals/group) of the female offspring (n = 7-8 animals/group) were sacrificed at 4 months of age and the remaining 50% (3-4 animals/group) at 22 months of age. Left cerebral hemisphere homogenate was used for biochemical analysis and right cerebral hemisphere for immunohistochemical studies. We treated 2- to 3-month-old pregnant 3xTg-AD and WT mothers with compound P021 in mouse chow, or with vehicle feed as control at E8 until their offspring/pups reached PND21, at which point the offspring were separated and put on standard mouse chow (Fig. 1). Treatment was administered as 60 nmol peptide/g formulated diet (Research Diets; New Brunswick, NJ, USA). The vehicle-treated control animals received the same diet but without the peptide. On average, each mouse consumed ~ 2.7 g diet/day. The Morris water maze task was used to evaluate spatial learning and memory of the mice. A total of 57 mice were subjected to the Morris water maze task at about 4 months of age. The test was performed in a circular white pool (with a diameter of 180 cm and a height of 60 cm) filled with nontoxic white dye-tinted water and maintained at room temperature (20 ± 1 °C). The maze was designed with two virtual principal axes, with each line bisecting the maze perpendicular to the other one to divide the maze into four equal quadrants. […]

[1] = commercial service (APREDICA, Watertown, MA); cited from earlier work

## Ac-DGGL^AG-NH2 [P021, 4-mer CNTF small molecule peptide mimetic to which adamantylated glycine was added at the C-terminal]
3xTg-AD mice; 3xTg-AD offspring, P021 diet E8-PND21, 4 training days, three-way ANOVA treatment P = 0.1088, t test 3xTg-Vh vs 3xTg-P021 P < 0.05
  escape latency to reach the hidden platform, acquisition phase: did not prevent it as determined by the three-way ANOVA but showed a clear tendency as determined by the two-tailed t test
3xTg-AD mice; 3xTg-AD offspring, P021 diet E8-PND21, probe 24 h after last training, 3xTg-Vh vs 3xTg-P021 P = 0.0132
  latency to first entrance into the target zone, probe trial: decreased the latency significantly
3xTg-AD mice; among WT-Vh, WT-P021, 3xTg-Vh, 3xTg-P021 groups
  swim speed and cued trial: no significant difference
[1]
  crossing of the blood-brain barrier: enough P021 crossed the BBB to exert its effect in the brain
